Like-named read-outs stand apart in the source and are kept apart here.
How the values were obtained:
MRC-5 fibroblasts [1] = assay: Cytotoxicity, Neutral Red survival assay; type: cell-based, human
Description: (§1) SKOV3 and PEO1 cells were seeded in a clear 96-well plate at a density of 1 × 10^4 cells/well in 100-µL culture medium. MRC-5 cells were seeded at a density of 7.5 × 10^3/well and allowed to attach for 24 h at 37 °C. After incubation, the cells were treated with delphinidin chloride in a concentration range of 10–100 µM and 3-BP at concentrations between 5–25 µM for PEO1 and 10–50 µM for MRC-5 and SKOV3. Nontreated cells were used as a control. Stock solutions of tested substances were prepared in DMSO and their working solutions in culture media. The DMSO concentration was adjusted to 0.2% in all samples, which had no significant effect on the treated cells. After 24-h exposure time, the medium was removed and replaced with 100 µL of […] neutral red solution, and the cells were incubated at 37 °C for 1 h. Then, the cells were washed with PBS; fixed with 100 µL/well of 50% ethanol, 49% H2O and 1% glacial acetic acid and shaken (700 rpm) at room temperature for 20 min. Absorbance was measured at 540 nm against 620 nm.

PEO1 cells [2] = assay: Cytotoxicity, Neutral Red survival assay; type: cell-based, human; settings: read-out: IC50 of cell survival
Description: as §1

SKOV3 cells [3] = assay: Cytotoxicity, Neutral Red survival assay; type: cell-based, human; settings: read-out: IC50 of cell survival
Description: as §1

MRC-5 fibroblasts [4] = assay: ATP level (CellTiter-Glo); type: cell-based, human; settings: 25-µM D, 40 µM 3-BP, 24 h
Description: (§2) To determine the ATP level in the cells, the CellTiter-Glo® Luminescent Cell Viability Assay (Promega) was used. This method is based on the ATP-dependent conversion of luciferin to the luminescent oxyluciferin. Briefly, cells were seeded in a white/clear bottom 96-well plate with a density of 1 × 10^4/well (SKOV3 and PEO1) or 7.5 × 10^3/well (MRC-5). After 24-h incubation, the cells were treated with 25-µM D, a IC50 concentration of 3-BP (SKOV3 and MRC-5: 40 µM and PEO1: 20 µM) and both compounds simultaneously. The ATP level was determined after 24-h exposure to the tested compounds. The plate was equilibrated at room temperature for approximately 25 minutes. Next, 100 µL of the CellTiter-Glo® Reagent was added to each well, and the plate was shaken for 2 minutes. Then, the plate was left at room temperature for 10 minutes, and the luminescence was measured in a Spark multimode microplate reader (Tecan Group LTD., Männedorf, Switzerland).

PEO1 cells [5] = assay: ATP level (CellTiter-Glo); type: cell-based, human; settings: 25-µM D, 20 µM 3-BP, 24 h
Description: as §2

SKOV3 cells [6] = assay: ATP level (CellTiter-Glo); type: cell-based, human; settings: 25-µM D, 40 µM 3-BP, 24 h
Description: as §2

MRC-5 fibroblasts [7] = assay: Level of reactive oxygen species (DHE, DCFDA); type: cell-based, human; settings: 25-µM D, 40 µM 3-BP, 24 h
Description: (§3) The level of ROS in the MRC-5, SKOV3 and PEO1 cells after 24-h exposure to delphinidin chloride and 3-BP was assayed with 2′,7′-dichlorofluorescein diacetate (DCFDA) and dihydroethidium (DHE). Briefly, cells were seeded in a black 96-well flat clear-bottom plate at a density of 7.5 × 10^3/well for MRC-5 fibroblasts and 1 × 10^4 /well for cancer cells and allowed to attach at 37 °C for 24 h. After 24-h incubation, the medium was removed and replaced with a medium containing the examined substances at concentrations given previously. After incubation, the medium was removed and replaced by a 10-µM fluorescent probe (DHE or DCFDA) (100 µL/well). Stock solutions of the probes were prepared in DMSO, and working solutions were prepared in PBS. Fluorescence was measured at 490/529 nm (DCFDA) and 475/579 nm (DHE) for 2 h at 37 °C in 1-min intervals.

PEO1 cells [8] = assay: Level of reactive oxygen species (DHE, DCFDA); type: cell-based, human; settings: 25-µM D, 20 µM 3-BP, 24 h
Description: as §3

SKOV3 cells [9] = assay: Level of reactive oxygen species (DHE, DCFDA); type: cell-based, human; settings: 25-µM D, 40 µM 3-BP, 24 h
Description: as §3

SKOV3 cells [10] = assay: Cell migration (scraped area closure); type: cell-based, human
Description: Ovarian cancer cells and human normal fibroblasts were seeded on a 24-well plate at a density of 7 × 10^4/well (PEO1), 6.5 × 10^4/well (SKOV3) and 6 × 10^4/well (MRC-5) in 700 µL of appropriate cell medium and cultured at 37 °C to reach 90–95% confluence. Then, the cells in the middle of the wells were scraped off using sterile pipette tips (100 µL), cell debris was removed by washing with medium containing 2% FBS and the tested compounds diluted with medium containing 2% FBS were added. Images of the scraped area were collected after 12 h and 24 h at 10× objective magnification using an Olympus CKX53 microscope with a U-TV0. 5XC-3 digital microscope camera. The obtained results were analyzed using ImageJ software. The percentage of scraped area closure was estimated as the ratio of area measured after 12- or 24-h incubation and the area at the beginning of the experiment.

four OC cell lines = test system: four OC cell lines; parameters: method as in PMID 26259240; settings: cited from earlier work
DU145 cell line = test system: DU145 cell line; parameters: method as in PMID 27462923; settings: DU145, up to 150 µM; cited from earlier work
NHF cells = test system: NHF cells; parameters: method as in PMID 15016660; settings: 100–200 µM; cited from earlier work
AGS cells = test system: AGS cells; parameters: method as in PMID 15680311; settings: 50–200 µM; cited from earlier work
SF-268 cells = test system: SF-268 cells; parameters: method as in PMID 15680311; settings: SF-268, 50–200 µM; cited from earlier work
A549 cells = test system: A549 cells; parameters: method as in PMID 24124611; settings: cited from earlier work
HT29 cells = test system: HT29 cells; parameters: method as in PMID 17729219; settings: cited from earlier work
[11] = parameters: method as in PMID 17729219; settings: DMEM medium, after 30 min; cited from earlier work

| SMILES | ATP content (MRC-5 fibroblasts [4]) | ATP content (PEO1 cells [5]) | ATP content (SKOV3 cells [6]) | level of DCFDA-reactive ROS (MRC-5 fibroblasts [7]) | level of DHE-detectable ROS (MRC-5 fibroblasts [7]) | level of DCFDA-reactive ROS (PEO1 cells [8]) | level of DHE-detectable ROS (PEO1 cells [8]) | level of DCFDA-reactive ROS (SKOV3 cells [9]) | cell migration (SKOV3 cells [10]) | further results |
| --- | --- | --- | --- | --- | --- | --- | --- | --- | --- | --- |
| O=C(O)C(=O)CBr [3-BP, 3-bromopyruvic acid] | not affected | decrease | neither 3-BP nor D affected | not affected | decreased | increased | decreased | not affected | decreased | survival of MRC-5 fibroblasts (MRC-5 fibroblasts [1]; up to a concentration of 50 µM): not compromised; IC50 (PEO1 cells [2]; Homo sapiens, PEO1, 24 h): 18.7 µM; IC50 (SKOV3 cells [3]; Homo sapiens, SK-OV-3, 24 h): 40.5 µM; level of DHE-detectable ROS (SKOV3 cells [9]): not affecting; IC50 (four OC cell lines): 16 to 84 µM |
| Oc1cc(O)c2cc(O)c(-c3cc(O)c(O)c(O)c3)[o+]c2c1 [Delphinidin chloride, 3,3′,4′,5,5′,7-hexahydroxyflavylium] | not affected | did not change | neither 3-BP nor D affected | not affected | decreased | increased | increased | not affected | decreased | survival / viability of MRC-5 fibroblasts (MRC-5 fibroblasts [1]; up to 100 µM): did not affect; IC50 (PEO1 cells [2]; Homo sapiens, PEO1, 24 h, PEO1, 24-h exposure, Neutral Red, ND = no reduction of survival in the concentration range studied): < 100 µM; IC50 (PEO1 cells [2]; PEO1, 24-h exposure, Neutral Red, ND = no reduction of survival in the concentration range studied): 71.5 µM; IC50 (SKOV3 cells [3]; Homo sapiens, SK-OV-3, 24 h, SKOV3, 24-h exposure, Neutral Red, ND = no reduction of survival in the concentration range studied): < 100 µM; IC50 (SKOV3 cells [3]; SKOV3, 24-h exposure, Neutral Red, ND = no reduction of survival in the concentration range studied): 57.5 µM; viability (DU145 cell line): did not affect the viability; viability (NHF cells): decreased the viability; viability (AGS cells): did not affect significantly the viability; viability (SF-268 cells): did not affect significantly the viability; IC50 (A549 cells): 55 µM; IC50 (HT29 cells): 35 µM; stability in cell culture medium [11]: not detectable |
